# Results reported in patent US6737383B1, “Herbicidal oxadiazolidines” (priority 1999, dated 2004).
# How the values were obtained:
# wheat = assay: Test B pre/postemergence wheat; type: in vivo, Triticum aestivum
# How it was run: (§1)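 Herbicidal effect was estimated by eye on a ten-point control scale after plants spent twelve to sixteen days in a greenhouse following soil or foliar treatment. Foliar sprays targeted plants at one to four leaves; all doses were formulated in a non-phytotoxic solvent with surfactant.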
# corn = assay: Test B pre/postemergence corn; type: in vivo, Zea mays
# How it was run: as §1
# duck salad = assay: Test B flood test duck salad; type: in vivo, Heteranthera limosa
# How it was run: (§2)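 Each value is a visual injury score relative to controls, with 10 meaning complete control and 0 no effect. Evaluation took place twelve to sixteen days after the 2-leaf-stage plants were treated and kept in the greenhouse.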
# crabgrass = assay: Test B pre/postemergence crabgrass; type: in vivo, Digitaria sanguinalis
# How it was run: as §1
# purple nutsedge = assay: Test B pre/postemergence purple nutsedge; type: in vivo, Cyperus rotundus
# How it was run: as §1
# soybean = assay: Test B pre/postemergence soybean; type: in vivo, Glycine max
# How it was run: as §1
# rice = assay: Test B flood test rice; type: in vivo, Oryza sativa
# How it was run: as §2
# bedstraw = assay: Test B pre/postemergence bedstraw; type: in vivo, Galium aparine; settings: Preemergence
# How it was run: as §1
# pigweed = assay: Test B pre/postemergence pigweed; type: in vivo, Amaranthus retroflexus
# How it was run: as §1
# rape = assay: Test B pre/postemergence rape; type: in vivo, Brassica napus
# How it was run: as §1
# giant foxtail = assay: Test B pre/postemergence giant foxtail; type: in vivo, Setaria faberii
# How it was run: as §1
# surinam grass = assay: Test B pre/postemergence surinam grass; type: in vivo, Brachiaria decumbens
# How it was run: as §1
# velvetleaf = assay: Test B pre/postemergence velvetleaf; type: in vivo, Abutilon theophrasti
# How it was run: as §1
# blackgrass = assay: Test B pre/postemergence blackgrass; type: in vivo, Alopecurus myosuroides
# How it was run: as §1
# wild oat = assay: Test B pre/postemergence wild oat; type: in vivo, Avena fatua
# How it was run: as §1
# morningglory = assay: Test B pre/postemergence morningglory; type: in vivo, Ipomoea hederacea
# How it was run: as §1
# [1] = Postemergence, Rate 62 g/ha, scale 0 to 10, 0 is no effect, 10 is complete control
# [2] = Postemergence, Rate 125 g/ha, scale of 0 to 10 where 0 is no effect and 10 is complete control
# [3] = Postemergence, Rate 250 g/ha, scale of 0 to 10, 0 is no effect, 10 is complete control
# [4] = Preemergence, Rate 62 g/ha, scale 0 to 10 (0 no effect, 10 complete control)
# [5] = Preemergence, Rate 125 g/ha, scale of 0 to 10 where 0 is no effect and 10 is complete control
# [6] = Preemergence, Rate 250 g/ha, scale 0 to 10 (0 no effect, 10 complete control)
# [7] = Preemergence, Rate 500 g/ha, scale of 0 to 10 where 0 is no effect and 10 is complete control
# [8] = Postemergence, Rate 500 g/ha, scale of 0 to 10 where 0 is no effect and 10 is complete control
# [9] = Rate 62 g/ha, flood test species, Pre-emergence, visual evaluation after twelve to sixteen days
# [10] = Rate 125 g/ha, under heading Pre-emergence, flood test species, visual evaluation after twelve to sixteen days
# [11] = Rate 250 g/ha, Pre-emergence (flood test species), scale 0 to 10, 0 is no effect, 10 is complete control
# [12] = Rate 500 g/ha, Pre-emergence section of Table B, 0 to 10 scale (0 no effect, 10 complete control)
structure (smiles),measurement,setting,value
COCCn1c(=O)on(C(=O)N(c2ccccc2)C(C)C)c1=O [Compound 631],"Plant response rating, Wheat",wheat; [1],0
same,"Plant response rating, Wheat",wheat; [2],2
same,Wheat plant response rating,wheat; [3],6
same,Wheat plant response rating,wheat; [4],0
same,Wheat plant response rating,wheat; [5],3
same,"Plant response rating, Wheat",wheat; [6],8
same,"Plant response rating, Wheat",wheat; [7],9
same,"Plant response rating, Corn",corn; [1],5
same,"Plant response rating, Corn",corn; [2],5
same,Corn plant response rating,corn; [3],6
same,"Plant response rating, Corn",corn; [8],8
same,Corn plant response rating,corn; [4],5
same,Corn plant response rating,corn; [5],6
same,"Plant response rating, Corn",corn; [6],8
same,"Plant response rating, Corn",corn; [7],9
same,"Plant response rating, Ducksalad (0 to 10 scale, 0 is no effect, 10 is complete control)",duck salad; [9],0
same,"Ducksalad plant response rating (0 to 10 scale, 0 is no effect, 10 is complete control)",duck salad; [10],0
same,Ducksalad plant response rating,duck salad; [11],0
same,Ducksalad plant response rating,duck salad; [12],0
same,"Plant response rating, Crabgrass",crabgrass; [1],8
same,"Plant response rating, Crabgrass",crabgrass; [2],9
same,Crabgrass plant response rating,crabgrass; [3],9
same,"Plant response rating, Crabgrass",crabgrass; [8],9
same,Crabgrass plant response rating,crabgrass; [4],7
same,Crabgrass plant response rating,crabgrass; [5],7
same,"Plant response rating, Crabgrass",crabgrass; [6],9
same,"Plant response rating, Crabgrass",crabgrass; [7],9
same,"Plant response rating, Nutsedge",purple nutsedge; [1],0
same,"Plant response rating, Nutsedge",purple nutsedge; [2],0
same,Nutsedge plant response rating,purple nutsedge; [3],0
same,Nutsedge plant response rating,purple nutsedge; [4],0
same,Nutsedge plant response rating,purple nutsedge; [5],4
same,"Plant response rating, Nutsedge",purple nutsedge; [6],4
same,"Plant response rating, Nutsedge",purple nutsedge; [7],8
same,"Plant response rating, Soybean",soybean; [1],5
same,"Plant response rating, Soybean",soybean; [2],5
same,Soybean plant response rating,soybean; [3],8
same,Soybean plant response rating,soybean; [4],2
same,Soybean plant response rating,soybean; [5],5
same,"Plant response rating, Soybean",soybean; [6],9
same,"Plant response rating, Soybean",soybean; [7],9
same,"Plant response rating, Rice (0 to 10 scale, 0 is no effect, 10 is complete control)",rice; [9],0
same,"Rice plant response rating (0 to 10 scale, 0 is no effect, 10 is complete control)",rice; [10],0
same,Rice plant response rating,rice; [11],0
same,Rice plant response rating,rice; [12],0
same,Bedstraw plant response rating,"bedstraw; Rate 62 g/ha, scale 0 to 10 (0 no effect, 10 complete control)",0
same,Bedstraw plant response rating,"bedstraw; Rate 125 g/ha, scale of 0 to 10 where 0 is no effect and 10 is complete control",0
same,"Plant response rating, Bedstraw","bedstraw; Rate 250 g/ha, scale 0 to 10 (0 no effect, 10 complete control)",0
same,"Plant response rating, Redroot pigweed",pigweed; [1],0
same,"Plant response rating, Redroot pigweed",pigweed; [2],0
same,Redroot pigweed plant response rating,pigweed; [4],7
same,Redroot pigweed plant response rating,pigweed; [5],9
same,"Plant response rating, Redroot pigweed",pigweed; [6],10
same,"Plant response rating, Redroot pigweed",pigweed; [7],10
same,"Plant response rating, Rape",rape; [1],0
same,"Plant response rating, Rape",rape; [2],0
same,Rape plant response rating,rape; [3],2
same,"Plant response rating, Rape",rape; [8],2
same,Rape plant response rating,rape; [4],0
same,Rape plant response rating,rape; [5],0
same,"Plant response rating, Rape",rape; [6],6
same,"Plant response rating, Rape",rape; [7],8
same,"Plant response rating, Giant foxtail",giant foxtail; [1],8
same,"Plant response rating, Giant foxtail",giant foxtail; [2],9
same,Giant foxtail plant response rating,giant foxtail; [3],9
same,"Plant response rating, Giant foxtail",giant foxtail; [8],9
same,Giant foxtail plant response rating,giant foxtail; [4],9
same,Giant foxtail plant response rating,giant foxtail; [5],9
same,"Plant response rating, Giant foxtail",giant foxtail; [6],10
same,"Plant response rating, Giant foxtail",giant foxtail; [7],10
same,"Plant response rating, B. signalgrass",surinam grass; [1],1
same,"Plant response rating, B. signalgrass",surinam grass; [2],3
same,B. signalgrass plant response rating,surinam grass; [3],6
same,"Plant response rating, B. signalgrass",surinam grass; [8],8
same,B. signalgrass plant response rating,surinam grass; [4],6
same,B. signalgrass plant response rating,surinam grass; [5],7
same,"Plant response rating, B. signalgrass",surinam grass; [6],10
same,"Plant response rating, B. signalgrass",surinam grass; [7],10
same,"Plant response rating, Velvetleaf",velvetleaf; [1],4
same,"Plant response rating, Velvetleaf",velvetleaf; [2],4
same,Velvetleaf plant response rating,velvetleaf; [3],7
same,Velvetleaf plant response rating,velvetleaf; [4],6
same,Velvetleaf plant response rating,velvetleaf; [5],7
same,"Plant response rating, Velvetleaf",velvetleaf; [6],7
same,"Plant response rating, Velvetleaf",velvetleaf; [7],9
same,"Plant response rating, Blackgrass",blackgrass; [1],1
same,"Plant response rating, Blackgrass",blackgrass; [2],8
same,Blackgrass plant response rating,blackgrass; [3],6
same,"Plant response rating, Blackgrass",blackgrass; [8],9
same,Blackgrass plant response rating,blackgrass; [4],6
same,Blackgrass plant response rating,blackgrass; [5],7
same,"Plant response rating, Blackgrass",blackgrass; [6],9
same,"Plant response rating, Blackgrass",blackgrass; [7],10
same,"Plant response rating, Wild oats",wild oat; [1],0
same,"Plant response rating, Wild oats",wild oat; [2],0
same,Wild oats plant response rating,wild oat; [3],1
same,Wild oats plant response rating,wild oat; [4],0
same,Wild oats plant response rating,wild oat; [5],2
same,"Plant response rating, Wild oats",wild oat; [6],8
same,"Plant response rating, Wild oats",wild oat; [7],9
same,"Plant response rating, Morningglory",morningglory; [1],0
same,"Plant response rating, Morningglory",morningglory; [2],4
same,Morningglory plant response rating,morningglory; [3],4
same,"Plant response rating, Morningglory",morningglory; [8],10
same,Morningglory plant response rating,morningglory; [4],0
same,Morningglory plant response rating,morningglory; [5],0
same,"Plant response rating, Morningglory",morningglory; [6],4
same,"Plant response rating, Morningglory",morningglory; [7],7
